The values below come from paper PMC10820826, “Interrogation and validation of the interactome of neuronal Munc18-interacting Mint proteins with AlphaFold2” (The Journal of Biological Chemistry, 2023).

Ends that are not written are not given here.

Assay [1] addresses T1, Munc18-1 (Rattus norvegicus, UniProt P61765).
T1 construct: His (C); made in house; host or cells: Escherichia coli Rosetta BL21 (DE3)
As to the kind of experiment: ITC of Mint peptides and Sx1a binding to Munc18-1.
Experimental: For ITC, all peptides were weighed and initially dissolved in the working buffer to make a stock concentration of 2 mM. […] The binding parameters, equilibrium constant Ka (1/Kd), stoichiometry (n), and the enthalpy (ΔH) were determined by processing the ITC data using ORIGIN 7.0 software. The equation, ΔG = ΔH – TΔS, was used to calculate the Gibbs free energy (ΔG), and all the experiments were performed in triplicate or duplicate to calculate the SEM for thermodynamic parameters.

Assay [2] concerns the target Munc18-1^Δ317–333 + Mint1. As to the kind of experiment: ITC of Sx1a binding to Munc18-1 hinge-loop deletion mutant in the presence of Mint1 (261–282) peptide. On the set-up: species or system rat. The note with it: Table 2; syringe Sx1a + Mint1, cell Munc18-1^Δ317–333 + Mint1; ITC 25 °C. The text has this: As Mint1 binds to Munc18-1 domain 3b, we hypothesized that the perturbed Mint1 interaction on deletion of the distal domain 3a hinge-loop might be due to altered structural dynamics in the combined domain3a/3b module. […] This is in line with the ability to cocrystallize the three proteins when excess Mint1 peptide is present ([47]). […] This has potential implications for a role of Mint proteins in Munc18-1-mediated SNARE assembly, which is a tightly regulated and highly dynamic process.
For ITC, all peptides were weighed and initially dissolved in the working buffer to make a stock concentration of 2 mM. […] GST-Mint1 and all the other proteins used in the experiments were buffer exchanged into 50 mM Tris (pH 8.0) and 200 mM NaCl by gel filtration prior to ITC. […] Mint1 PTB domain binding to the APP and TJAP1 peptides was performed in 50 mM Hepes, 200 mM NaCl, 0.5 mM TCEP, and 5% glycerol at 25 °C with 1 mM peptides titrated into 50 μM Mint1 PTB domain. The binding parameters, equilibrium constant Ka (1/Kd), stoichiometry (n), and the enthalpy (ΔH) were determined by processing the ITC data using ORIGIN 7.0 software. The equation, ΔG = ΔH – TΔS, was used to calculate the Gibbs free energy (ΔG), and all the experiments were performed in triplicate or duplicate to calculate the SEM for thermodynamic parameters.

T1 sequence (P61765 whole entry): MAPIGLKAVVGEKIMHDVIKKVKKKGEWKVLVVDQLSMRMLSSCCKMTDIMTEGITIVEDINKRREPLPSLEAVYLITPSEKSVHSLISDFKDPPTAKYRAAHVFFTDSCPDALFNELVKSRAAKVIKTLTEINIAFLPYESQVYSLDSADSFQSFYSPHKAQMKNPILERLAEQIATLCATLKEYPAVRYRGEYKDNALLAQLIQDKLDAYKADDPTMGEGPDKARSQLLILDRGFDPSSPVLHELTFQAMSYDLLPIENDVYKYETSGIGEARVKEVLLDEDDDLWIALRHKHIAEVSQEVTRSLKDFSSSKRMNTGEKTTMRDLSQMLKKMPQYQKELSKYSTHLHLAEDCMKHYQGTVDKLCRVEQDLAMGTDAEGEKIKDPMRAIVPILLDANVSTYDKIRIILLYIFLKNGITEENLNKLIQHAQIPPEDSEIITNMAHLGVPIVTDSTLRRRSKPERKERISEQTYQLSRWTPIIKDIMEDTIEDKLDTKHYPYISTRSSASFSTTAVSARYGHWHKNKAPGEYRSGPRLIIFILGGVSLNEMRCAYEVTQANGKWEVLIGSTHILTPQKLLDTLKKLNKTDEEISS

As a reminder, the Kd is the concentration at which binding is half-saturated. In assay [1], LEDQEEDIDQIVAEIKMELEMEEI [Mint2_2] had a Kd of 200 µM.
Turning to MDSYEQEEDIDQIVAAVKQSMS [Mint1_14], in assay [1], the Kd was determined as 216 µM.
Turning to “Sx1a: recombinant rat Syntaxin1a (Sx1_1–261-His) expressed in E. coli”, the Kd in assay [2] was 0.09 µM.
